# Source: patent US20210231673A1, “METHODS AND COMPOSITIONS FOR DETECTION AND QUANTIFICATION OF SMALL MOLECULES AND OTHER ANALYTES” (President and Fellows of Harvard College, priority 2018, published 2021)
# Tests used:
# Assay type in all cases: binding
# anti-PGE2 antibody [1] = experiment: Two-plex single molecule array assay for PGE2 and cortisol: PGE2; settings: simultaneous detection of cortisol and PGE2
# Procedure: (§1) Carboxylated 2.7 μm paramagnetic beads (˜4×10^8), non-encoded for single-plex assays and dye-encoded (488 nm and 647 nm) for multiplex assays, were washed three times with 600 μL of bead wash buffer (0.1% TWEEN® 20 in 1× PBS, pH 7.4) and twice with 400 μL of MES buffer (50 mM MES, pH 6.2). 1 mg/mL EDC in MES buffer was freshly prepared and 200 μL was added to the beads and mixed well. The beads were activated on a shaker for 30 min. After activation, the beads were washed once with 200 μL of MES buffer. 200 μL of 10 mg/mL BSA or BSA-cortisol conjugate in MES buffer were added to the activated beads. The beads were incubated at room temperature with shaking for 2 h, and then washed three times with bead wash buffer. […] The beads were counted using a Beckman-Coulter MULTISIZER™.
# (§2) A two-step assay configuration was chosen when hapten-BSA-coated beads were used. […] Images of the arrays were analyzed and AEB (average enzyme per bead) values were calculated by the software in the SIMOA HD-1 ANALYZER™.
# (§3) Standard curves were obtained by plotting the signal responses (AEB and OD) against the logarithm of analyte concentrations using Origin software (Origin 9.5). […] The limit of detection (LOD) was calculated as three standard deviations (SDs) above the background. […]
# anti-PGE2 antibody [2] = experiment: Single-plex competitive single molecule array assay for PGE2 (BSA-PGE2 beads)
# Procedure: as §1, §2, §3
# anti-cortisol antibody = experiment: Two-plex single molecule array assay for PGE2 and cortisol: cortisol; settings: simultaneous detection of cortisol and PGE2
# Procedure: as §1, §2, §3
# [3] = Conventional competitive ELISA for cortisol (BSA-cortisol coated plate); settings: cortisol concentration causing 50% inhibition of maximum response
# Procedure: The high-binding 96-well microtiter plate was coated with BSA-cortisol conjugate in PBS (1 μg/mL, 100 μL/well) overnight at 4° C. After washing, the plate was blocked with 1% BSA in PBS (200 μL/well) for 1 h at room temperature and subsequently washed. Next, biotinylated anti-cortisol (10 nM, 10 μL/well) in PBS and serial concentrations of cortisol standard (0, 0.001, 0.01, 0.1, 1, 10, 100 and 1,000 ng/mL,100 μL/well) prepared in Sample Diluent were added to the wells. The immunoreaction was allowed to proceed for 1 h. After washing, the plate was incubated with streptavidin-horseradish peroxidase (HRP((2 nM, 100 μL/well) for 30 min. After another washing, 3,3′,5,5′-tetramethylbenzidine (TMB) substrate (100 μL/well) was added and the plate was incubated for 15 min. Next, 50 μL of 1 mol/L hydrochloric acid was added to each well to stop the enzymatic reaction. Finally, the optical density (OD) was recorded at 450 nm on a Tecan Infinite M200 Plate Reader.
# as §3
# [4] = tested on: anti-cortisol antibody (XM210); experiment: Multiplex single molecule array assay for IL-6 and cortisol: cortisol (competitive); settings: simultaneous detection of IL-6 and cortisol
# Procedure: A two-step assay configuration was used for simultaneous detection of IL-6 and cortisol. BSA-cortisol coated beads were mixed with anti-IL6 capture beads (1:1 in number). The mixed beads were diluted to a concentration of 10,000 beads/μL. A mixture of detection antibodies, 10 pM for anti-cortisol antibody (XM210) and 1 nM for anti-IL6 detector, was prepared in Detector Diluent. A mixture of cortisol and IL-6 standards was serially diluted to desired concentrations. All the other conditions were the same as the single-plex assay.
# Standard curves were obtained by plotting the signal responses (AEB and OD) against the logarithm of analyte concentrations using Origin software (Origin 9.5). The 4-parameter logistic equation y=A2+(A1−A2)/[1+(x/x0)^P] was used for curve fitting in the whole concentration range, where A1 is the maximum signal without analyte, A2 is the minimum signal at infinite concentration, p is the curve slope at the inflection point, and x0 is the IC50 (analyte concentration causing a 50% inhibition of the maximum response). The lower the IC50 is, the higher the sensitivity is. The limit of detection (LOD) was calculated as three standard deviations (SDs) above the background. All measurements were performed in triplicate. […]
# [5] = Competitive single molecule array assay, BSA-cortisol MBs (two-step, single-plex); settings: single-plex comparison to IL-6/cortisol multiplex
# Procedure: A two-step assay configuration was chosen when hapten-BSA-coated beads were used. Specifically, hapten-BSA-coated capture beads were diluted in Bead Diluent (Quanterix) to a concentration of 5,000 beads/μL. Biotinylated detector antibodies were diluted in Detector Diluent (Quanterix) to the desired concentration (1 pM for anti-cortisol antibodies, and 1 nM for anti-PGE2 antibodies). SβG concentrate was diluted to 200 pM in SβG Diluent (Quanterix). Cortisol and PGE2 standards were serially diluted to desired concentrations in Sample Diluent. The reagents including beads, detector, and SβG were placed in plastic bottles (Quanterix). The samples were loaded onto a 96-well plate (Quanterix). […] Images of the arrays were analyzed and AEB (average enzyme per bead) values were calculated by the software in the SIMOA HD-1 ANALYZER™.
# as §3
# We applied single molecule array assay to small molecule detection by developing a bead-based competitive protocol. […] The beads labeled with detection probes were then labeled with an enzyme, SβG, via biotin-streptavidin interaction and detected by enzymatic readout on the SIMOA™ platform. […]
"IC50 for PGE2, two-plex assay (anti-PGE2 antibody [1]) [ng/mL]","IC50 for PGE2, single-plex assay (anti-PGE2 antibody [2]) [ng/mL]","IC50 for cortisol, two-plex assay (anti-cortisol antibody) [ng/mL]",ELISA IC50 [3] [ng/mL],"IC50 for cortisol, multiplex assay with IL-6 [4] [ng/mL]","IC50 for cortisol, single-plex assay [5] [ng/mL]",Compound
0.7,0.37,,,,,"CCCCC[C@H](O)/C=C/[C@H]1[C@H](O)CC(=O)[C@@H]1C/C=C\CCCC(=O)O [PGE2, Prostaglandin E2]"
,,0.46,170.23,0.57,0.54,C[C@]12CCC(=O)C=C1CC[C@@H]1[C@@H]2[C@@H](O)C[C@@]2(C)[C@H]1CC[C@]2(O)C(=O)CO [cortisol]
